The values below come from ChEMBL document CHEMBL1201862, “PubChem BioAssay data set” (2004).

Test systems include RXF 631; Hs-578T; MDA-MB-435; BT-549; DU-145; MDA-MB-231; MDA-N; T47D.
What all share (test): growth of human tumour cells (NCI), 48 h

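Cultured in 96-well plates, cells were exposed to test compound for 48 hours across five concentrations. GI50 marks 50% less growth.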 Calls of active or inactive are those of the source. No stated cut-off is given here; in the data, active = GI50 up to about 1.1 µM and inactive = higher.

Consider `Cc1ccc(NC(=O)CC/C(CC(=O)C(C)(C)C)=N/NC(=O)c2cc3ccccc3cc2O)cc1C`, for which the GI50 in the test on RXF 631 is 44.1 µM (inactive).

For the compound `CCOC(=O)c1ncoc1[C@H]1COC(C)(C)O1`, in the test on RXF 631, the GI50 was > 100 µM (inactive).

Consider `COc1ccc(C2=N/C(=C\c3ccccc3)C(=O)O2)cc1`, for which the GI50 was 40.8 µM (inactive) in the test on Hs-578T and > 100 µM (inactive) in the test on MDA-MB-435.

As to `COc1cccc(N2C(=O)CSC2c2c[nH]c3ccccc23)c1` (stereo not given), the GI50 with BT-549, in the test on DU-145, with MDA-MB-231, in the test with MDA-MB-435, in the test with MDA-N and in the test on T47D was > 100 µM (inactive) each time.
